Laboratory results reported in patent publication US20250215029A1 (Recludix Pharma, Inc., priority 2022, published 2025).
Like-named read-outs stand apart in the source and are kept apart here.

Columns and labels:
[1] = molecular target: T1, Recombinant STAT6 protein (STAT6 (W123-T658)) (Homo sapiens, UniProt P42226); test: STAT6 Fluorescence Polarization (FP) Assay; type: binding; settings: 45-minute incubation
T1 construct: Recombinant STAT6 protein (STAT6 (W123-T658))
T1 sequence (P42226 123-658): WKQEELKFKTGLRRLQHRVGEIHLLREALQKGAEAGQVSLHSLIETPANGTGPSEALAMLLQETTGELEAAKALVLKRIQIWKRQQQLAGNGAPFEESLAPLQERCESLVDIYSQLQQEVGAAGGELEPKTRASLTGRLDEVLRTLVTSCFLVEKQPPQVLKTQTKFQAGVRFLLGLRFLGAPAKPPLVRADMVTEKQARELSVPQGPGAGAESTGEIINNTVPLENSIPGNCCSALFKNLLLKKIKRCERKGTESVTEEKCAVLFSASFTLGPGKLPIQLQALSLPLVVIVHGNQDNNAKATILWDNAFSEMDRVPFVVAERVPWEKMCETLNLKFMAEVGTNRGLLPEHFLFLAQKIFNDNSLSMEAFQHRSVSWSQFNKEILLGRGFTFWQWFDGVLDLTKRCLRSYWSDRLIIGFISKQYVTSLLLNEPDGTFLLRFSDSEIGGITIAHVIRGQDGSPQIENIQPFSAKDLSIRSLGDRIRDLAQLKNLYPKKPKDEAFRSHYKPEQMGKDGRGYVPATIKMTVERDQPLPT
Description: STAT6 Fluorescence Polarization (FP) Assay
An FP assay was developed to determine IC50 values for test substances. Recombinant STAT6 protein (STAT6 (W123-T658)) at 250 nM was combined with a fluorescently labeled, phosphotyrosine peptide probe (5-FAM-Ap[…]-NH2) at 2 nM in FP buffer (10 mM HEPES pH 7.4, 50 mM NaCl, 1 mM EDTA, 0.05% Tween 20, 2 mM DTT). 50 μL of STAT6-probe mixture was added to serial diluted compounds in black, 96-well plates (Greiner BioOne 655076) to a final concentration of 1% DMSO. Reaction components were mixed, and FP was measured after 45-minute incubation at room temperature using a Tecan Spark multimode plate reader. FP signal (mP) was plotted against the log concentration of the test substances and IC50 values were calculated by nonlinear regression analysis using GraphPad Prism software. For STAT6 FP assay, A=≤300 nM; B=>300-3000 nM; C=>3-30 μM; and D=>30 μM.

[2] = molecular target: T2, Recombinant STAT3 protein (STAT3 (G127-I722)) (Homo sapiens, UniProt P40763); test: STAT3 Fluorescence Polarization (FP) Assay; type: binding; settings: probe 5-FAM-GpYLPQTV-NH2 2 nM, 45-minute incubation
T2 construct: Recombinant STAT3 protein (STAT3 (G127-I722))
Description: STAT3 Fluorescence Polarization (FP) Assay
An FP assay was developed to determine IC50 values for test substances. Recombinant STAT3 protein (STAT3 (G127-I722)) at 25 nM was combined with a fluorescently labeled, phosphotyrosine peptide probe (5-FAM-GpYLPQTV-NH2) at 2 nM in FP buffer (10 mM HEPES pH 7.4, 50 mM NaCl, 1 mM EDTA, 0.05% Tween 20.2 mM DTT). 50 μL of STAT3-probe mixture was added to serial diluted compounds in black, 96-well plates (Greiner BioOne 655076) to a final concentration of 1% DMSO. Reaction components were mixed, and FP was measured after 45-minute incubation at room temperature using a Tecan Spark multimode plate reader. FP signal (mP) was plotted against the log concentration of the test substances and IC50 values were calculated by nonlinear regression analysis using GraphPad Prism software. For STAT3 FP assay, A=≤100 nM; B=>100-1000 nM; C=>1-10 μM; and D=>10 μM.

[3] = STAT6 250 nM, probe 5-FAM-Ap[…]-NH2 2 nM, read-out: STAT6 (FP assay IC50)
[4] = STAT3 25 nM, read-out: STAT3 (FP assay IC50)
[5] = STAT3 (G127-I722) 25 nM, read-out: STAT3 (FP assay IC50 class)
[6] = STAT6 (W123-T658) 250 nM, probe 5-FAM-Ap[…]-NH2 2 nM, read-out: STAT6 (FP assay IC50 class)

T2 sequence (P40763 127-722): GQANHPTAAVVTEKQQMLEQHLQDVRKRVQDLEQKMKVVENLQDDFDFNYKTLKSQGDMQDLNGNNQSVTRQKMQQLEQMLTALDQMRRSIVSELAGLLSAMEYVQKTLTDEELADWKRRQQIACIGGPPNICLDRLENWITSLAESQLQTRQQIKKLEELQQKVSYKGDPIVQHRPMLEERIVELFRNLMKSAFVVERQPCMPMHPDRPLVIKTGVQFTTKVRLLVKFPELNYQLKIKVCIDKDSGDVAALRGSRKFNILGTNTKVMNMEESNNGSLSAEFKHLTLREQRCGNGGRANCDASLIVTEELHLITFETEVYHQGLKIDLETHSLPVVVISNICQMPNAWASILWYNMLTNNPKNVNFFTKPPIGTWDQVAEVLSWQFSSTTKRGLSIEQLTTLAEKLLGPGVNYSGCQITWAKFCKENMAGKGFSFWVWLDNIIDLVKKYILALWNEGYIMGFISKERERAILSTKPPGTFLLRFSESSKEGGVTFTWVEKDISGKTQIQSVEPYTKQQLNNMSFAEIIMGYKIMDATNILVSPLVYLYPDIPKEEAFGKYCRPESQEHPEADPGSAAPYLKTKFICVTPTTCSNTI

SMILES | IC50 [1, 3] [µM] | IC50 [2, 4] [nM] | IC50 ([1]; STAT6 (W123-T658) 250 nM, probe 5-FAM-ApYKPFQDLI-NH2 2 nM, read-out: STAT6 (FP assay IC50 class)) [µM] | IC50 [2, 5] [nM] | IC50 [1, 6] [µM]
COc1cccc([C@H]2CN(C(=O)[C@@H]3CC[C@@H]4CCCC[C@H](NC(=O)c5cc6cc(C(F)(F)P(=O)(O)O)ccc6s5)C(=O)N43)C[C@@H]2C#N)n1 (racemic) [Compound 105, ((2-(((3S,6S,10aS)-3-(rel-(trans) 3-cyano-4-(6-methoxypyridin-2-yl)pyrrolidine-1-carbonyl)-5-oxodecahydropyrrolo [1,2-a]azocin-6-yl)carbamoyl)benzo[b]thiophen-5-yl)difluoromethyl) phosphonic acid] | ≤ 0.3 | 100 to 1000 | – | – | –
O=C(N[C@H]1CCCC[C@H]2CC[C@@H](C(=O)N3CC(N4CCOCC4)C3)N2C1=O)c1cc2cc(C(F)(F)P(=O)(O)O)ccc2s1 [Compound 113, (difluoro(2-(((3S,6S, 10aS)-3-(3-morpho-linoazetidine-1-carbonyl)-5-oxodecahydropyrrolo[1,2-a]azocin-6-yl)carbamoyl)benzo[b]thiophen-5-yl)methyl)ph osphonic acid] | 3 to 30 | 100 to 1000 | – | – | –
N#C[C@@H]1[C@@H](c2cccnc2)CN(C(=O)[C@@H]2CC[C@@H]3CCCC[C@H](NC(=O)c4cc5cc([C@H](F)P(=O)(O)O)ccc5s4)C(=O)N32)C12CC2 (single isomer, unassigned) [Compound 840] | – | – | ≤ 0.3 | 1000 to 10000 | –
Cc1cc(C2CN(C(=O)[C@@H]3CC[C@@H]4CCC[C@H](NC(=O)c5cc6cc(C(F)P(=O)(O)O)ccc6s5)C(=O)N43)C2)ccn1 (stereo partly drawn) [Compound 769, (fluoro(2-(((3S,6S,9aS)-3-(3-(2-methylpyridin-4-yl)azetidine-1-carbonyl)-5-oxooctahydro-1H-pyrrolo[1,2-a]azepin-6-yl)carbamoyl)benzo [b]thiophen-5-yl)methyl) phosphonic acid] | – | – | – | < 100 | 3 to 30
O=C(N[C@H]1CCCC[C@H]2CC[C@@H](C(=O)N3CC4(CC(C5CC5)=NO4)C3)N2C1=O)c1cc2cc(C(F)(F)P(=O)(O)O)ccc2s1 [Compound 72, ((2-(((3S,6S,10aS)-3-(7-cyclopropyl-5-oxa-2,6-diazaspiro[3.4]oct-6-ene-2-carbonyl)-5-oxodecahydropyrrolo [1,2-a]azocin-6-yl)carbamoyl)benzo[b]thiophen-5-yl)difluoromethyl) phosphonic acid] | 0.3 to 3 | 100 to 1000 | – | – | –
O=C(N[C@H]1CCCC[C@H]2CC[C@@H](C(=O)N3CCC(c4ccncn4)CC3)N2C1=O)c1cc2cc(C(F)P(=O)(O)O)ccc2s1 (stereo partly drawn) [Compound 590, (fluoro(2-(((3S,6S,10aS)-5-oxo-3-(4-(pyrimidin-4-yl)piperidine-1-carbonyl)decahydropyrrolo[1,2-a]azocin-6-yl)carbamoyl)benzo[b]thiophen-5-yl)methyl)phosphonic acid] | – | – | – | 1000 to 10000 | 3 to 30
COc1ccncc1C1CN(C(=O)[C@@H]2CC[C@@H]3C[C@H](C(C)C)CC[C@H](NC(=O)c4cc5cc(C(F)P(=O)(O)O)ccc5s4)C(=O)N32)C1 (stereo partly drawn) [Compound 211, (fluoro(2-(((3S,6S,9R,10aR)-9-isopropyl-3-(3-(4-methoxypyridin-3-yl)azetidine-1-carbonyl)-5-oxodecahydropyrrolo[1,2-a]azocin-6-yl)carbamoyl)benzo[b]thiophen-5-yl)methyl)phosphonic acid] | – | – | – | < 100 | 3 to 30
Cc1nccnc1C1CN(C(=O)[C@@H]2CC[C@@H]3CCC[C@H](NC(=O)c4cc5cc(C(F)(F)P(=O)(O)O)ccc5s4)C(=O)N32)C1 [Compound 648, (difluoro(2-(((3S,6S,9aS)-3-(3-(3-methylpyrazin-2-yl)azetidine-1-carbonyl)-5-oxooctahydro-1H-pyrrolo[1,2-a]azepin-6-yl)carbamoyl)benzo [b]thiophen-5-yl)methyl) phosphonic acid] | – | – | – | < 100 | 3 to 30
CCOc1ccncc1C1CN(C(=O)[C@@H]2CC[C@@H]3CCC[C@H](NC(=O)c4cc5cc([C@H](F)P(=O)(O)O)ccc5s4)C(=O)N32)C1 (single isomer, unassigned) [Compound 772] | – | – | – | < 100 | 3 to 30
CN(C)c1ncncc1C1CN(C(=O)[C@@H]2CC[C@@H]3CCC[C@H](NC(=O)c4cc5cc([C@@H](F)P(=O)(O)O)ccc5s4)C(=O)N32)C1 (single isomer, unassigned) [Compound 667] | – | – | – | < 100 | 3 to 30
COc1cc(C(F)F)ncc1C1CN(C(=O)[C@@H]2CC[C@@H]3CCC[C@H](NC(=O)c4cc5cc(CP(=O)(O)O)ccc5s4)C(=O)N32)C1 [Compound 593, ((2-(((3S,6S,9aS)-3-(3-(6-(difluoromethyl)-4-methoxypyridin-3-yl)azetidine-1-carbonyl)-5-oxooctahydro-1H-pyrrolo[1,2-a]azepin-6-yl)carbamoyl)benzo [b]thiophen-5-yl)methyl) phosphonic acid] | – | – | – | 1000 to 10000 | 3 to 30
N#C[C@@H]1CN(C(=O)[C@@H]2CC[C@@H]3CCCC[C@H](NC(=O)c4cc5cc([C@@H](F)P(=O)(O)O)ccc5s4)C(=O)N32)C[C@H]1c1ccccc1 (single isomer, unassigned) [Compound 19, ((2-(((3S,6S,10aS)-3-((3S,4R or 3R,4S))-3-cyano-4-phenylpyrrolidine-1-carbonyl)-5-oxodecahydropyrrolo [1,2-a]azocin-6-yl)carbamoyl)benzo[b]thiophen-5-yl)fluoromethyl) phosphonic acid] | ≤ 0.3 | 1000 to 10000 | – | – | –
COC1(c2cccnc2)CN(C(=O)[C@@H]2CC[C@@H]3CCCC[C@H](NC(=O)c4cc5cc(CP(=O)(O)O)ccc5s4)C(=O)N32)C1 [Compound 651, ((2-(((3S,6S,10aS)-3-(3-methoxy-3-(pyridin-3-yl)azetidine-1-carbonyl)-5-oxodecahydropyrrolo [1,2-a]azocin-6-yl)carbamoyl)benzo [b]thiophen-5-yl)methyl) phosphonic acid] | – | – | – | 1000 to 10000 | 3 to 30
CO[C@@H]1CCN(c2ccncc2C2CN(C(=O)[C@@H]3CC[C@@H]4CCC[C@H](NC(=O)c5cc6cc(CP(=O)(O)O)ccc6s5)C(=O)N43)C2)C1 [Compound 688, ((2-(((3S,6S,9aS)-3-(3-(4-((R)-3-methoxypyrrolidin-1-yl)pyridin-3-yl)azetidine-1-carbonyl)-5-oxooctahydro-1H-pyrrolo[1,2-a]azepin-6-yl)carbamoyl)benzo [b]thiophen-5-yl)methyl) phosphonic acid] | – | – | – | < 100 | 3 to 30
O=C(N[C@H]1CCCC[C@H]2CC[C@@H](C(=O)N[C@H]3COC[C@H]3F)N2C1=O)c1cc2cc(C(F)(F)P(=O)(O)O)ccc2s1 (relative stereo) [Compound 1111, (difluoro(2-(((3S,6S,10aS)-3-(((rel-trans)-4-fluorotetrahydrofuran-3-yl)carbamoyl)-5-oxodecahydropyrrolo[1,2-a]azocin-6-yl)carbamoyl)benzo[b]thiophen-5-yl)methyl)phosphonic acid] | – | – | – | 1000 to 10000 | 3 to 30
N#C[C@@H]1[C@@H](c2ccccc2)CN(C(=O)[C@@H]2CC[C@@H]3CCCC[C@H](NC(=O)c4cc5cc([C@H](F)P(=O)(O)O)ccc5s4)C(=O)N32)C12CC2 (single isomer, unassigned) [Compound 835] | – | – | – | 1000 to 10000 | ≤ 0.3
